Experimental data: PubChem BioAssay AID1963826 (Molecular Pharmacology Branch, DTP, NCI, 2024)

Test system: 926638-142-R-J1-PDC complex spheroid viability
Experiment: Anticancer human tumor 926638-142-R-J1-PDC patient-derived endometrial carcinoma cell line growth inhibition [POLQ]
Settings: for IC50: curve of first compound; for viability, T/C: stronger effect = lower value
Protocol: Multicellular complex tumor spheroid response to Polymerase (POL) inhibitors (novobiocin, ART-558, RP6685) in combination with a variety of drugs and investigational agents in selected tumor cell lines
The POL inhibitors (novobiocin, ART-558, and RP6685) were evaluated both individually and in combination with standard of care and investigational anticancer small molecules within a complex spheroid model of solid tumors. . Complex spheroids include a stromal component modeled by human endothelial cells (HUVEC) and fibroblasts modeled by human mesenchymal stem cells (MSCs). The concentration ranges selected for each drug and investigational agent were based upon clinically achievable concentrations if the clinical Cmax of the agent was known.
Compounds. The drugs and investigational agents: novobiocin (NSC847541), ART-558 (NSC835418), RP-6685 (NSC848927), peposertib (NSC802822), ceralasertib (NSC780249), elimusertib (NSC800525), camonsertib (NSC841442), AZD-1390 (NSC803789), olaparib (NSC753686), talazoparib (NSC767125), rucaparib (NSC756644), sotorasib (NSC818433), MRTX-1133 (NSC836407), SN-38 (NSC673596), topotecan (NSC609699), epotoside (NSC141540), doxorubicin (NSC123127), gemcitabine (NSC613327), 5-fluorouracil (NSC19893), paclitaxel (NSC125973), vemurafenib (NSC761431), MSA-2 (NSC828583), SN-011 (NSC837082), adavosertib (NSC754352), prexasertib (NSC758257), carboplatin (NSC241240) and oxaliplatin (NSC266046), were obtained from the National Cancer Institute (NCI) Developmental Therapeutics Program Chemical Repository (21). The FDA-approved anticancer drug set is available from the Developmental Therapeutics Program at https://dtp.cancer.gov/organization/dscb/obtaining/. […] The stock solutions were prepared in dimethyl sulfoxide (DMSO, Sigma-Aldrich, St. Louis, MO, cat. D2650), except for the platinum compounds which were prepared in saline (Quality Biological, Gaithersburg, MD, cat. 114-055-101), at 800-fold the tested concentration and stored at -70 degrees C prior to their use. All drugs and investigational agents were tested over a range starting from a high concentration at or near the clinical Cmax and decreasing in half-log increments. If the clinical Cmax for an agent had not been determined, the highest concentration tested was 10 microM, except for SN-38, which was tested at a high concentration of 1 microM.
Cell Culture. All cells were maintained in an incubator at 37 degrees C and 5% CO2 with 95% humidity. The PDC lines were cultured according to standard operating procedures established by the NCI PDMR (https://pdmr.cancer.gov). Table 3 of the manuscript, lists the cell lines along with the number of the three cell types plated to form the mct-spheroids and media for tumor cell growth. After thawing, all PDC lines, except 997537-175-T-J1-PDC and 415267-285-R-J2-PDC, were cultured in Matrigel-coated flasks prepared with a working solution of 1X Ham's F-12 nutrient mix, without supplementation (Thermo Fisher Scientific, cat. 11765054), 100 U/mL penicillin-streptomycin (Thermo Fisher Scientific, cat. 15140122), and 2.5% Matrigel (Corning Inc., Corning, NY, cat. 354248) for the first three passages. The two PDC lines 997537-175-T-J1-PDC and 415267-285-R-J2-PDC were cultured on uncoated flasks. The 857933-349-R-J2-PDC line was cultured in 6C/Colon 1B media containing advanced DMEM/F-12 (Thermo Fisher Scientific, cat. 12634028), 10 mM HEPES (Thermo Fisher Scientific, cat. 15630080), 1X GlutaMAX supplement (Thermo Fisher Scientific, cat. 35050061), 0.1 mg/mL primocin (InvivoGen, San Diego, CA, cat. ant-pm-2), 10% defined fetal bovine serum, heat inactivated (HyClone Laboratories Inc., Logan, UT, cat. SH30070.03HI), 50% L-WRN conditioned media (ATCC, cat. CRL-3276), 1.25 mM N-Acetyl-L-cysteine (Sigma-Aldrich, cat. A9165), 10 mM nicotinamide (Sigma-Aldrich, cat. N0636), 1X B-27 supplement (Thermo Fisher Scientific, cat. 17504044), 1X N-2 supplement (Thermo Fisher Scientific, cat. […]

[1] = second compound 0.0316 µM, first compound 0.0316 µM
[2] = second compound 0.0316 µM, first compound 0.1 µM
[3] = second compound 0.0316 µM, first compound 0.316 µM
[4] = second compound 0.0316 µM, first compound 1 µM
[5] = second compound 0.1 µM, first compound 0.0316 µM
[6] = second compound 0.1 µM, first compound 0.1 µM
[7] = second compound 0.1 µM, first compound 0.316 µM
[8] = second compound 0.1 µM, first compound 1 µM
[9] = second compound 0.316 µM, first compound 0.0316 µM
[10] = second compound 0.316 µM, first compound 0.1 µM
[11] = second compound 0.316 µM, first compound 0.316 µM
[12] = second compound 0.316 µM, first compound 1 µM
[13] = second compound 1 µM, first compound 0.0316 µM
[14] = second compound 1 µM, first compound 0.1 µM
[15] = second compound 1 µM, first compound 0.316 µM
[16] = second compound 1 µM, first compound 1 µM
[17] = second compound 3.16 µM, first compound 0.0316 µM
[18] = second compound 3.16 µM, first compound 0.1 µM
[19] = second compound 3.16 µM, first compound 0.316 µM
[20] = second compound 3.16 µM, first compound 1 µM
[21] = second compound 10 µM, first compound 0.0316 µM
[22] = second compound 10 µM, first compound 0.1 µM
[23] = second compound 10 µM, first compound 0.316 µM
[24] = second compound 10 µM, first compound 1 µM
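Also: spheroids exposed to drugs for one week before readout.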
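For viability, T/C in this document: percent viability relative to DMSO vehicle control wells set as 100%.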

## COc1cccc(OCCCN)c1-c1cc(Nc2cnc(C#N)cn2)n[nH]1 + COC1C(OC(N)=O)C(O)C(Oc2ccc3c(O)c(NC(=O)c4ccc(O)c(CC=C(C)C)c4)c(=O)oc3c2C)OC1(C)C
Second compound 0.0316 µM
  IC50: 0.146 µM
Second compound 0.1 µM
  IC50: 0.122 µM
Second compound 0.316 µM
  IC50: 0.113 µM
Second compound 1 µM
  IC50: 0.107 µM
Second compound 3.16 µM
  IC50: 0.0705 µM
Second compound 10 µM
  IC50: 0.0777 µM
Second compound 0.0316 µM, first compound 0.00316 µM
  viability, T/C: 104%
Second compound 0.0316 µM, first compound 0.01 µM
  viability, T/C: 96.4%
[1]
  viability, T/C: 65.9%
[2]
  viability, T/C: 61.8%
[3]
  viability, T/C: 36%
[4]
  viability, T/C: 24.8%
Second compound 0.1 µM, first compound 0.00316 µM
  viability, T/C: 111%
Second compound 0.1 µM, first compound 0.01 µM
  viability, T/C: 79%
[5]
  viability, T/C: 68.3%
[6]
  viability, T/C: 56.6%
[7]
  viability, T/C: 39%
[8]
  viability, T/C: 31.5%
Second compound 0.316 µM, first compound 0.00316 µM
  viability, T/C: 94.2%
Second compound 0.316 µM, first compound 0.01 µM
  viability, T/C: 74.5%
[9]
  viability, T/C: 62.7%
[10]
  viability, T/C: 51.4%
[11]
  viability, T/C: 42.2%
[12]
  viability, T/C: 35.2%
Second compound 1 µM, first compound 0.00316 µM
  viability, T/C: 87.7%
Second compound 1 µM, first compound 0.01 µM
  viability, T/C: 77.9%
[13]
  viability, T/C: 47.3%
[14]
  viability, T/C: 56.4%
[15]
  viability, T/C: 49.1%
[16]
  viability, T/C: 29.6%
Second compound 3.16 µM, first compound 0.00316 µM
  viability, T/C: 92.6%
Second compound 3.16 µM, first compound 0.01 µM
  viability, T/C: 89.3%
[17]
  viability, T/C: 60.4%
[18]
  viability, T/C: 46.2%
[19]
  viability, T/C: 46.5%
[20]
  viability, T/C: 31.7%
Second compound 10 µM, first compound 0.00316 µM
  viability, T/C: 81.2%
Second compound 10 µM, first compound 0.01 µM
  viability, T/C: 80.8%
[21]
  viability, T/C: 65%
[22]
  viability, T/C: 44.5%
[23]
  viability, T/C: 36.9%
[24]
  viability, T/C: 27.9%

## O=c1[nH]cc(F)c(=O)[nH]1 + Cc1cccc(N(C)C(=O)C2C(O)CCN2c2nc(C)cc(C(F)(F)F)c2C#N)c1
Second compound 0.0316 µM
  IC50: > 10 µM
Second compound 0.1 µM
  IC50: > 10 µM
Second compound 0.316 µM
  IC50: > 10 µM
Second compound 1 µM
  IC50: > 10 µM
Second compound 3.16 µM
  IC50: > 10 µM
Second compound 10 µM
  IC50: > 10 µM
[1]
  viability, T/C: 106%
[2]
  viability, T/C: 98.6%
[3]
  viability, T/C: 96.6%
[4]
  viability, T/C: 104%
Second compound 0.0316 µM, first compound 3.16 µM
  viability, T/C: 89.5%
Second compound 0.0316 µM, first compound 10 µM
  viability, T/C: 82.2%
[5]
  viability, T/C: 111%
[6]
  viability, T/C: 91.2%
[7]
  viability, T/C: 110%
[8]
  viability, T/C: 82.1%
Second compound 0.1 µM, first compound 3.16 µM
  viability, T/C: 106%
Second compound 0.1 µM, first compound 10 µM
  viability, T/C: 71.4%
[9]
  viability, T/C: 88.3%
[10]
  viability, T/C: 80.2%
[11]
  viability, T/C: 98.8%
[12]
  viability, T/C: 83.5%
Second compound 0.316 µM, first compound 3.16 µM
  viability, T/C: 88.1%
Second compound 0.316 µM, first compound 10 µM
  viability, T/C: 75%
[13]
  viability, T/C: 81.2%
[14]
  viability, T/C: 104%
[15]
  viability, T/C: 88.4%
[16]
  viability, T/C: 97.5%
Second compound 1 µM, first compound 3.16 µM
  viability, T/C: 81.4%
Second compound 1 µM, first compound 10 µM
  viability, T/C: 81.5%
[17]
  viability, T/C: 98.7%
[18]
  viability, T/C: 89.4%
[19]
  viability, T/C: 82.7%
[20]
  viability, T/C: 90.9%
Second compound 3.16 µM, first compound 3.16 µM
  viability, T/C: 91%
Second compound 3.16 µM, first compound 10 µM
  viability, T/C: 92.8%
[21]
  viability, T/C: 81.5%
[22]
  viability, T/C: 98.4%
[23]
  viability, T/C: 90%
[24]
  viability, T/C: 95.2%
Second compound 10 µM, first compound 3.16 µM
  viability, T/C: 107%
Second compound 10 µM, first compound 10 µM
  viability, T/C: 80.8%
